Where a SMILES comes first, the peptide text is derived from it. The star is where a group is joined. NH(6-Ac-2-naphthyl) = CC(=O)c1ccc2cc(N*)ccc2c1
What was measured:
[1] = not given; remark: listed apart in the source
caspase-1 = biological target: T1, caspase-1 (Homo sapiens, UniProt P29466); assay: S/N ratio of caspase-1 probes in BV2 lysates spiked with caspase-1; assay type: biochemical; details: probe 6 μM, 25 μg BV2 lysates spiked with caspase-1, 37 °C, 2 h; among the four caspase-1 probes
T1 construct: purchased Merck
T1 sequence (P29466 120-297 limits assumed): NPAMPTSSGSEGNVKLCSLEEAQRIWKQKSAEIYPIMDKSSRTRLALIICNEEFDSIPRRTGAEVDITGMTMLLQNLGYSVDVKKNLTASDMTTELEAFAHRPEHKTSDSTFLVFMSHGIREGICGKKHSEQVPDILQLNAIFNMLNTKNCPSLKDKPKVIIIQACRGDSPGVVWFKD
T1 sequence (P29466 317-404 limits assumed): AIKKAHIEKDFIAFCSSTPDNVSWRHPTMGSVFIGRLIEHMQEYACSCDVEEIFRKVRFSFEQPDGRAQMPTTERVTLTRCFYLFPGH
Protocol: Figure 2 Photophysical and enzymatic properties of caspase probes. (a) Photophysical and kinetic properties of probes and free dyes. All measurements were taken in 50 mM HEPES, 50 mM NaCl, 0.1% CHAPS, 10 mM EDTA, 5% glycerol, 10 mM DTT, at pH = 7.2. (b) Time-dependent ratiometric fluorescence changes of C1RB (6 μM) incubated with caspase-1 (10 nM) over 2 h at room temperature. Data were obtained by plotting the normalized ratio of fluorescence intensity at 500 nm (F500 nm) over that at 450 nm (F450 nm). (Inset) time-dependent fluorescence emission spectra with λex = 350 nm. (c) Time-dependent “Turn-ON” effect of C1FS (6 μM) incubated with caspase-1 (10 nM) measured and normalized at 460 nm (F460 nm) over 2 h at room temperature, with the corresponding fluorescence emission spectra (inset). λex = 350 nm. (d) Normalized S/N ratio of each of the four caspase-1 probes (6 μM) incubated with 25 μg of BV2 lysates spiked with different concentrations of caspase-1 (37 °C, t = 2 h). S and N represent the fluorescence emission intensity of each reaction solution in the presence (S) and absence (N) of caspase-1. […] (−) no caspase; (caspase-1) 1.5 nM; (caspase-3) 0.8 nM; (caspase-6) 0.2 μM; (caspase-8) 10 nM; (caspase-9) 0.5 μM. […] Normalized, relative fluorescence (RFU) values were obtained after 2-h incubation at room temperature. […]

[2] = system: NIH/3T3, BV2 and HeLa cells; assay: XTT cytotoxicity assay; assay type: cell-based, mouse, human; details: XTT assay, 12, 30, 60, 120 μM, 24 h
Protocol: Supplementary Figure 4. Cytotoxicity of two-photon enzymatic probes (12, 30, 60, 120 μM) in mammalian cells (NIH/3T3, BV2 and HeLa) after incubation for 24 h, as determined by XTT assay. […]
Detection of caspase activities in mammalian cells and tissues
Cell culture. The mouse embryonic fibroblast cell line (NIH/3T3), mouse microglial cell line (BV2) and human epithelial carcinoma cell line (HeLa) used in our experiments were cultured in Dulbecco’s Modified Eagle's Medium (DMEM) supplemented with 10% (for NIH/3T3 and HeLa) or 5% (for BV2) fetal bovine serum (FBS), 100.0 mg/L streptomycin and 100 IU/mL penicillin in a humidified atmosphere of 5% CO2 at 37 °C.
XTT assay. The cytotoxicity of our probes was determined by using the XTT colorimetric cell proliferation kit (Roche) following manufacturer’s guidelines. Briefly, NIH/3T3, BV2 and HeLa cells were seeded in 20~30% confluency (since they will reach >50% confluency within 24 h) into 96-well plates and incubated overnight before the addition of probes with concentrations of 12 μM, 30 μM, 60 μM and 120 μM, respectively. Probes were applied from DMSO stocks whereby DMSO never exceeded 1% in the final solution. The same volume of DMSO was used as a negative control; and the same volume of STS (200 nM) was used as a positive control. After a total treatment time of 24 h, proliferation was assayed using the XTT assay (Supplementary Fig. 4). […]

[3] = not given; remark: listed apart in the source
[4] = system: caspase-1 in primary cortical neurons; assay: TPFM of caspase-1 activation in glucose-deprived primary cortical neurons; assay type: cell-based, mouse; details: 50 μM, added 1 h prior to the probe (t = 7 h during GD)
Protocol: NC: neuron cells incubated in normal neurobasal medium.
All two-photon images were taken on a Leica TCS SP5X Confocal Microscope System. […] Dissociated neuron-enriched cell cultures of cerebral cortex were established from day 16 C57BL/6 mouse embryos, as described[53]. Primary neurons were cultured in the neurobasal medium (Gibco) with 2% B27 and 0.5 mM GlutaMAX. Experiments were performed in 7–9 day-old cultures. For glucose-deprivation studies, glucose-free neurobasal medium was used (with other components fixed). The cultured neurons were incubated in glucose-free medium for 8 h, while control cells were incubated in normal neurobasal medium.
Caspase-1-like activities detected in primary cortical neurons of C57BL/6 mouse underwent
glucose-deprivation (GD) treatment.
neurons grown in normal culture medium and incubated with C1RB/C1FS for 1 h (NC). Panels 2/5: primary neuron
underwent GD induction for 8 h and incubated with C1RB/C1FS for 1 h.
(50 μM) was added 1 h earlier (t = 7 h) than C1RB/C1FS.
TPFM imaging of caspase activities in primary cortical neurons and fresh tissues.
Dissociated neuron-enriched cell cultures of cerebral cortex were established from day 16 C57BL/6 mouse embryos, as described.14 Primary neurons were cultured in the neurobasal medium (Gibco) with 2% B27 and 0.5 mM GlutaMAX. Experiments were performed in 7-9 day-old cultures. […]

SMILES	λem (emission maximum) [nm]	λex (absorption/excitation maximum) [1] [nm]	detection limit of caspase-1 activity (caspase-1)	cytotoxicity [2]	δΦ (two-photon action cross-section) [3] [GM]	effect of inhibitor on C1RB/C1FS fluorescence signals in glucose-deprived neurons [4]
CC(=O)N[C@@H](Cc1c[nH]c2ccccc12)C(=O)N[C@@H](CCC(=O)O)C(=O)N[C@@H](Cc1c[nH]cn1)C(=O)N[C@@H](CC(=O)O)C(=O)Nc1ccc2cc(C(C)=O)ccc2c1 [C1RB, Ac-WEHD-AAN] (Ac-WEHD-{NH(6-Ac-2-naphthyl)})	448	316	lowest detection limit	minimally cytotoxic	2.3	–
CCO[C@@H]1OC(=O)C[C@@H]1NC(=O)[C@@H]1CCCN2C(=O)CC[C@H](NC(=O)c3nccc4ccccc34)C(=O)N12 [Pralnacasan]	–	–	–	–	–	inhibited

Reference: PMC4876444, “Two-Photon Enzymatic Probes Visualizing Sub-cellular/Deep-brain Caspase Activities in Neurodegenerative Models” (Scientific Reports, 2016)
